Experimental data as given in patent US20240228390A1, “Chelated Nutrients and Methods of Use Thereof” (ICL AMERICA DO SUL S.A., priority 2021, published 2024).

Test: Stability testing at different pH levels
Type: physicochemical
Conditions: Chelate A (glutamic acid + malic acid)
Experimental: Stability testing at different PH levels was performed and turning to Table 1, there is a large range of the chelates' stability, wherein the structure of the chelates can be considered stable.

For [Zn(Glu)(Mal)]2Na [Chelate A Zn^2+], the “Stability pH of the chelates, Acid medium” value (acid limit of stable pH range) was 0.20 and the “Stability pH of the chelates, Alkaline medium” value (alkaline limit of stable pH range) was 11.30.
